US20100035793A1, “Modulators” (priority 2005, published 2010)

Experiments:
JAK2 = JAK2 (Homo sapiens, UniProt O60674); conditions: cited from earlier work
Stat3 [1] = target: T1, Stat3 (Homo sapiens, UniProt P40763); experiment: Western blot of Stat3 phosphorylation and expression in KF48 treated with Cucurbitacin I; type: cell-based; parameters: primary fibroblasts derived from normal skin and keloid tissues were further examined; endogenous in cells; host or cells: KF48 primary keloid fibroblasts
Procedure: (§1) Inhibition of Stat3 was also evaluated by incubating KF48 for 30 min with various doses of Cucurbitacin I, an inhibitor of Jak2/Stat3 activation (32), or with DMSO alone as a control, followed by further incubation in normal growth media for 48 h. […] Cucurbitacin I was acquired from Galchimia (A Corufia, Spain).
(§2) Western blot. Cells were either harvested in radioimmune precipitation assay (RIPA) buffer (150 mM NaCl, 50 mM Tris-HCl, pH 7.2, 1% deoxycholic acid, 1% Triton X-100, 0.25 mM EDTA, pH 8.0) containing protease inhibitor cocktail (Roche Diagnostics Corporation, Indianapolis, Ind., USA), or lysis buffer containing 150 mM NaCl, 10 mM Tris-HCl, pH 7.4, 0.5% Triton-X-100, 0.5% NP-40, 1 mM EDTA, 0.2 mM sodium vanadate, supplemented with protease inhibitor tablet. Total cell lysates were collected after centrifugation for 10 min at 4° C., and resolved in 7.5% or 10% polyacrylamide gel electrophoresis, and transferred to PVDF membranes (Bio-Rad Laboratories, Hercules, Calif., USA). The membranes were blotted with anti-phosphoTyr705 Stat3 antibody (1:1000 dilution; Cell Signaling, Beverly, Mass., USA) overnight at 4° C. overnight in PBS containing 1% BSA and 0.1% Tween 20, washed with PBS containing 0.2% Tween 20, and incubated with secondary anti-rabbit IgG antibody (1:2000 dilution; Sigma, Saint Louis, Mo., USA) for 1 h at room temperature, washed with PBS containing 0.2% Tween 20, followed by enhanced chemiluminescence (Amersham Biosciences, Buckinghamshire, UK) or Lumi-Light (Roche Diagnostics Corporation, Indianapolis, USA), and autoradiography. The membranes were stripped with Restore Western Blotting Stripping Buffer (Pierce, Rockford, Ill., USA) according to manufacturer's instructions and reblotted with anti-phosphoSer727 Stat3 (1:1000 dilution; Cell Signaling, Beverly, Mass., USA) and secondary anti-mouse IgG antibody (1:2000 dilution; Sigma, Saint Louis, Mo., USA). The stripping and reblotting procedure was repeated with monoclonal anti-Stat3 (1:1000 dilution; BD Transduction Laboratories), polyclonal anti-actin (1:1000 dilution; Sigma) and monoclonal anti-collagen antibody (1:1000 dilution; MONOSAN).
Target sequence in this assay (P40763 whole entry): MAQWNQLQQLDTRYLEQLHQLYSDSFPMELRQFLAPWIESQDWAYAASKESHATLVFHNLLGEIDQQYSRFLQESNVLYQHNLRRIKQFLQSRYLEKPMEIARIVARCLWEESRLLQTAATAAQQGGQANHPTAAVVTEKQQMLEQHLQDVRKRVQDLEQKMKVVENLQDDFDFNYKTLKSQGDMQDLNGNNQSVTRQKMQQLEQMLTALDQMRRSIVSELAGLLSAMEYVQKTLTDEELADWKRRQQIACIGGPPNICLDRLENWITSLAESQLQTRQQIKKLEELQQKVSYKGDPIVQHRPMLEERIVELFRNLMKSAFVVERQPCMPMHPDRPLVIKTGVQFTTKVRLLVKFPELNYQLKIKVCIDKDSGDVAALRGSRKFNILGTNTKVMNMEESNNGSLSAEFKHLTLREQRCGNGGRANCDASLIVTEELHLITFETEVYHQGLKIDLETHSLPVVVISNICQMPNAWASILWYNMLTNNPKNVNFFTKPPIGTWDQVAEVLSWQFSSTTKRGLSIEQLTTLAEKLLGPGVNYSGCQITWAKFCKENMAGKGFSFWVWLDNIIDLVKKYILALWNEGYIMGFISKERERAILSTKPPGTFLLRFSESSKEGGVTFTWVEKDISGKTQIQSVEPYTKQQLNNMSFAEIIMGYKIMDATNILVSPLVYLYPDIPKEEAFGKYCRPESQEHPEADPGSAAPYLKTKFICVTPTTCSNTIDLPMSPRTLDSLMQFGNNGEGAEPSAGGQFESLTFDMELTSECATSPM

[2] = system: A549 human lung carcinoma cells; parameters: dose or concentration left out as unconfirmed; conditions: Cucurbitacin I for 24 h; cited from earlier work
collagen = experiment: Western blot of collagen production in KF48 keloid fibroblasts; type: cell-based, human; conditions: KF48, Cucurbitacin I 30 min then 48 h in growth media, FIG. 5B
Procedure: These vectors containing Stat3 siRNA targets and empty vector were transfected into 293T-based Phoenix-Ampho packaging cell line for 7-9 h, and the amphotropic retroviruses were harvested 48 h later, pelleted to remove nonadherent cells and cellular debris, and filtered through a […] cellulose acetate membrane. The keloid fibroblasts were infected overnight in the presence of 4 μg/ml polybrene, and replaced with fresh 10% FBS/DMEM the following day. Cells were assayed for Western blot 48 h after infection, or for XTT cell proliferation, or for migration assay which was performed by replating the cells into 8 μM Transwell membrane and fixed 24 h later as described above.
as §1
as §2, with “The membranes were stripped with Restore Western Blotting Stripping Buffer (Pierce, Rockford, Ill., USA) according to manufacturer's instructions and reblotted with anti-phosphoSer727 Stat3 (1:1000 dilution; Cell Signaling, Beverly, Mass., USA) and secondary anti-mouse IgG antibody (1:2000 dilution; Sigma, Saint Louis, Mo., USA). The stripping and reblotting procedure was repeated with monoclonal anti-Stat3 (1:1000 dilution; BD Transduction Laboratories), polyclonal anti-actin (1:1000 dilution; Sigma) and monoclonal anti-collagen antibody (1:1000 dilution; MONOSAN).” left out
Methods of assessing polypeptides regulated by STAT Collagen may be regulated by STAT 3 activation. monoclonal anti-human collagen I, II, III Was purchased from MONOSAN (Uden, Netherlands). […] These were detected via western blot as described above.

KF48 keloid fibroblasts [3] = experiment: Scratch-wound migration assay; type: cell-based, human
Procedure: Cell migration in keloidflbroblasts is inhibited by Stat3 siRNA and Cucurbitacin I. To examine the role of Stat3 in cell migration of skin fibroblasts, KF48 cells were infected with retrovirus expressing Stat3 siRNAs and scratch assays were performed as previously described. […] Three non-overlapping fields were acquired, and graphically illustrated as mean±SD in FIG. 8B. Transmembrane cell migration assays were also performed in triplicates as described earlier, and quantified as mean±SD (FIG. 8C). […] The right panels in FIG. 8B and 8C depict immunoblots of Stat3 and actin to show the efficiencies of inhibition by the Stat3 siRNAs.
The role of Stat3 in cell migration was also examined using Cucurbitacin I in the scratch assay. KF48 cells were first incubated with 10 μg/ml mitomycin C for 2 h, before treating for 30 min with DMSO or 1 μM Cucurbitacin I. The scratch-wound was performed, followed by further incubation in normal growth media. Pictures were taken at 0 h, 22 h and 48 h after wounding.
Migration assay. For migration assay using the scratch method, cells were grown to confluence and incubated with 10 μg/ml mitomycin C for 2 h, before a scratch wound was introduced using a yellow pipette tip. Cells were further incubated in normal growth media and pictures were taken at 0 h, 14 h, 15 h, 22 h, or 48 h after wounding. Three non-overlapping fields were captured by Axiovert 135 microscope from Zeiss and cells migrated into the wound site were counted and presented as mean±SD.

A549 tumor = conditions: nude mice; cited from earlier work
KF48 keloid fibroblasts [4] = experiment: XTT proliferation assay; type: cell-based, human
Description: Inhibition of Stat3 decreases cell proliferation. Enhanced fibroblast proliferation is a characteristic of keloid tissue. In agreement with this, keloid fibroblasts grown in normal culture conditions proliferated faster than normal fibroblasts, as observed in KF48 and KF107 compared to NF2 and NF4 (FIG. 6A). To investigate whether Stat3 is involved in the enhanced keloid fibroblast proliferation, KF48 was infected with retrovirus expressing Stat3 siRNAs, and cell proliferation was examined. […] XTT proliferation assay. Cells seeded at 3,000 cells/well in 96-well plates and grown in normal growth conditions, or infected with retroviral Stat3 siRNAs, were assayed for proliferation using the XrT proliferation kit (Roche) according to the manufacturer's instructions. The readings were taken at 450 nm and referenced against 690 nm, 2 h after the addition of the XrT reagent. Each sample was performed at quadruplicates in two to three independent experiments. Data are presented as mean±SD
Cell proliferation was also investigated by treating KF48 cells with various doses of Cucurbitacin I or with DMSO control, before incubating in normal growth media and examined daily over 4 days. Cucurbitacin I concentration as low as I μM was able to inhibit cell proliferation of KF48 compared to DMSO and untreated control (0 μM), whereas Cucurbitacin I exposure at 5 μM and above seemed to cause cell death (FIG. 6C).

Stat3 [5] = target: T1, Stat3; conditions: cited from earlier work
Target sequence in this assay (P40763 whole entry, species assumed): as the sequence (P40763 whole entry) above

[6] = KF48, 30 min treatment then 48 h in growth media, FIG. 5B

JAK2, sequence (O60674 whole entry, species assumed): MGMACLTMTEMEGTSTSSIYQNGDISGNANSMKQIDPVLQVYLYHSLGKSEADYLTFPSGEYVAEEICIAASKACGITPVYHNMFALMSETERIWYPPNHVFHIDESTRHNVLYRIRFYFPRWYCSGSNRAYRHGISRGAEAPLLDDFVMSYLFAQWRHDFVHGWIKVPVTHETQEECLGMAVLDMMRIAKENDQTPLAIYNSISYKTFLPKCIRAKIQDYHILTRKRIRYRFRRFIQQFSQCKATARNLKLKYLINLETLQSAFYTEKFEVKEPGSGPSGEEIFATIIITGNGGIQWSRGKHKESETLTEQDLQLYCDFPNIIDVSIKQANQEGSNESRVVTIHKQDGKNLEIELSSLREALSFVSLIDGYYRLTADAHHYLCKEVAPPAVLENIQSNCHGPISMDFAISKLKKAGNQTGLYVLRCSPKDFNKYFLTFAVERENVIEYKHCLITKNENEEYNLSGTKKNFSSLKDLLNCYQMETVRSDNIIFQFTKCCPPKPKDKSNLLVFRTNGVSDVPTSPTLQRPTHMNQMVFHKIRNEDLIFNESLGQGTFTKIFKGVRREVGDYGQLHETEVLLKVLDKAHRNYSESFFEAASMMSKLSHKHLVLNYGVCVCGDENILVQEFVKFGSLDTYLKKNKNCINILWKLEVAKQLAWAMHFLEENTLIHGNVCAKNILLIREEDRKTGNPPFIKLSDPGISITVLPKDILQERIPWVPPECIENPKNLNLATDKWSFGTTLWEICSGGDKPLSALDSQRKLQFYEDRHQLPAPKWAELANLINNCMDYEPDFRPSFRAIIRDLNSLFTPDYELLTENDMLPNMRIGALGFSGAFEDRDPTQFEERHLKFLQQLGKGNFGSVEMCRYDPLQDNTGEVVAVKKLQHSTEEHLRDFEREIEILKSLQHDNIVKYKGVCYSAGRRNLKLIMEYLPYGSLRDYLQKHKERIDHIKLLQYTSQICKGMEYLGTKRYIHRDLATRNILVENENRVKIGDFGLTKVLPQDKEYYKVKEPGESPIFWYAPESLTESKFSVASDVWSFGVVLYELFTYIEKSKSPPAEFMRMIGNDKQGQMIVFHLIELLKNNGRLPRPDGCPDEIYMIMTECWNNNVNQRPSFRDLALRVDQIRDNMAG

Which “inhibition of activation of JAK2” value (JAK2) does the source give for `CC(C)(O)/C=C/C(=O)[C@](C)(O)[C@H]1[C@H](O)C[C@@]2(C)[C@@H]3CC=C4[C@@H](C=C(O)C(=O)C4(C)C)[C@]3(C)C(=O)C[C@]12C` [Cucurbitacin I] here?
The value was “inhibit”.

And the “potency on pJak2 relative to pSTAT 3” value (JAK2)?
The value was “more potent inhibitor of pJak2 than pSTAT 3”.

What about the “effective concentration as low as (inhibition of pY705 Stat3, pS727 Stat3 and collagen production)” value (Stat3 [1]; KF48, 30 min treatment then 48 h) of the same compound?
The value was 1 μM.

And the Stat3 expression (Stat3 [1]; KF48, 30 min treatment then 48 h, FIG. 5B)?
Its Stat3 expression is “dose-dependent decrease”.

And the “inhibition of pS727 Stat3” value (Stat3 [1]; [6])?
Its value is “dose-dependent inhibition”.

What about the “inhibition of pY705 Stat3” value (Stat3 [1]; [6]) of the same compound?
The value was “dose-dependent inhibition”.

What about the apoptosis [2] of the same compound?
Its apoptosis is 9.8%.

What about the tumor cell death [2] of the same compound?
Its tumor cell death is 33%.

What about the “inhibition of collagen production” value (collagen) of the same compound?
Its value is “dose-dependent inhibition”.

What about the “cell migration at 22 h” value (KF48 keloid fibroblasts [3]; 1 μM for 30 min, 22 h after wounding, vs DMSO, P<0.001) of the same compound?
The value was “significant reduction in cell migration”.

What about the “cell migration at 48 h” value (KF48 keloid fibroblasts [3]; 1 μM for 30 min, 48 h after wounding, vs DMSO) of the same compound?
The value was “delayed migration”.

And the “migration of KF48, scratch assay” value (KF48 keloid fibroblasts [3]; 1 μM for 30 min, compared to DMSO control, FIG. 8D)?
Its value is “decelerated the migration”.

And the “concentration as low as, effective in decreasing rate of migration to that of normal fibroblasts” value (KF48 keloid fibroblasts [3]; keloid fibroblasts)?
The value was 1 µM.

What about the “inhibition of A549 tumor growth” value (A549 tumor) of the same compound?
The value was 55.4%.

And the “exposure that seemed to cause cell death” value (KF48 keloid fibroblasts [4]; KF48, FIG. 6C)?
The value was at least 5 µM.

And the “concentration as low as, able to inhibit cell proliferation” value (KF48 keloid fibroblasts [4]; KF48, examined daily over 4 days, vs DMSO and untreated)?
The value was 1 µM.

What about the “observations at higher doses” value (KF48 keloid fibroblasts [4]; higher doses, FIGS. 6C and 8D) of the same compound?
The value was “cell morphology changes and the beginning of some cell death”.

What about the “inhibition of activation of STAT 3” value (Stat3 [5]) of the same compound?
The value was “inhibit”.
